# Measured values published in ChEMBL document CHEMBL5543140 (J Med Chem, 2024).
# Active and inactive are the calls of the source. The rule behind the calls is not given here.
# Key:
# Mus musculus [1] = assay: Psychedelic effect in C57BL/6J mouse assessed as number of head-twitch responses by visual observation at 3 mg/kg, po measured for 3 mins at 5 to 25 min; assay type: functional; details: 0.05 h
# [2] = biological target: 5-hydroxytryptamine receptor 2A (Homo sapiens, UniProt P28223); assay: Agonist activity at human 5-HT2A receptor expressed in HEK293 cells assessed as maximal IP2 production measured after 30 mins incubation by HTRF assay relative to control; assay type: functional, cell-based; details: filed as agonist
# [3] = biological target: T1, 5-hydroxytryptamine receptor 2B (Homo sapiens, UniProt P41595); assay: Binding affinity to human [125I]LSD-labeled 5-HT2B receptor expressed in CHO cell membrane incubated for 60 mins; assay type: cell membranes
# [4] = biological target: T2, 5-hydroxytryptamine receptor 1A (Homo sapiens) (UniProt P08908); assay: Displacement of [3H]-8-OH-DPAT from 5-HT1A receptor (unknown origin) assessed as inhibition binding at 10 uM relative to control
# T2 sequence (whole entry): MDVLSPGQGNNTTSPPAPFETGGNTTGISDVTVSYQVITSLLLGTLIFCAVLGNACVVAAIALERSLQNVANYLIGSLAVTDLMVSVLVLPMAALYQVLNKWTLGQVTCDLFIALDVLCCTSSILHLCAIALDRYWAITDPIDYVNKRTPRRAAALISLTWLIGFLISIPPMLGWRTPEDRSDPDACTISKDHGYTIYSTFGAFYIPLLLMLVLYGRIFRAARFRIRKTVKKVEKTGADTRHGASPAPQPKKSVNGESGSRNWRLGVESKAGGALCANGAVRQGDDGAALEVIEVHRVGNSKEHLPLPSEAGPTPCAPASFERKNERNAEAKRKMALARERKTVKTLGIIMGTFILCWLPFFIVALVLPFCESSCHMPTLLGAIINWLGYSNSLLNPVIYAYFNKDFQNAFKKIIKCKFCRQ
# [5] = biological target: 5-hydroxytryptamine receptor 6 (Homo sapiens, UniProt P50406); assay: Displacement of [3H]LSD from 5-HT6 receptor (unknown origin) assessed as inhibition binding at 10 uM relative to control
# [6] = biological target: 5-hydroxytryptamine receptor 7 (Homo sapiens, UniProt P34969); assay: Displacement of [3H]LSD from 5-HT7 receptor (unknown origin) assessed as inhibition binding at 10 uM relative to control
# [7] = biological target: T1, 5-hydroxytryptamine receptor 2B; assay: Agonist activity at human 5-HT2B receptor expressed in CHO cells assessed as maximal IP2 production measured after 30 mins incubation by HTRF assay relative to control; assay type: functional, cell-based; details: read-out: EC50
# [8] = biological target: Adrenergic receptor alpha-2 (Rattus norvegicus) (UniProt P22086+P19328+P22909); assay: Displacement of [3H]RX 821002 from rat cerebral cortex alpha2 adrenergic receptor assessed as remaining activity at 10 uM after 60 mins by scintillation counting method relative to control
# Mus musculus [9] = assay: Psychedelic effect in C57BL/6J mouse assessed as induction of 5-HT2A receptor dependent maximal head-twitch responses by visual observation at 1 mg/kg, sc at 40 mins post- administration; assay type: functional, organism-based
# Mus musculus [10] = assay: Psychedelic effect in C57BL/6J mouse assessed as number of 5-HT2A receptor dependent head-twitch responses by visual observation at 3 mg/kg, sc measured after 24 hrs; assay type: functional
# [11] = Ex vivo binding in C57BL/6J mouse brain frontal cortex assessed as specific binding [3H]Cimbi-36 at 1 mg/kg, sc measured after 5 mins by liquid scintillation counting analysis (reference value: 1092 +/- 53); assay type: functional
# [12] = Ex vivo binding in C57BL/6J mouse brain frontal cortex assessed as specific binding [3H]Cimbi-36 at 1 mg/kg, sc measured after 40 mins by liquid scintillation counting analysis (reference value: 1092 +/- 53); assay type: functional
# [13] = Ex vivo binding in C57BL/6J mouse brain frontal cortex assessed as specific binding [3H]Cimbi-36 at 1 mg/kg, sc measured after 160 mins by liquid scintillation counting analysis (reference value: 1092 +/- 53); assay type: functional; details: 2.667 h
# Mus musculus [14] = assay: Induction of neuroplasticity in C57BL/6J mouse assessed as increase in Homer1 mRNA expression in brain frontal cortex at 0.3 mg/kg, sc single dose by RT-PCR analysis; assay type: functional, organism-based
# Mus musculus [15] = assay: Induction of neuroplasticity in C57BL/6J mouse assessed as increase in EGR2 mRNA expression in brain frontal cortex at 0.3 mg/kg, sc single dose by RT-PCR analysis; assay type: functional, organism-based
# Hippocampus = assay: Induction of neuroplasticity in C57BL/6J mouse assessed as increase in BDNF mRNA expression in brain hippocampus at 0.3 mg/kg, sc single dose by RT-PCR analysis; assay type: functional, organism-based
# [16] = Metabolic stability in human liver microsomes assessed as half life at 1 uM incubated for 120 mins in presence of NADPH; assay type: ADME, Microsome
# [17] = Metabolic stability in monkey liver S9 fractions assessed as half life; assay type: ADME, subcellular, Macaca fascicularis; details: cynomolgus monkey, liver S9 fraction
# [18] = Metabolic stability in rat liver S9 fractions assessed as half life; assay type: ADME, subcellular; details: liver S9 fraction
# [19] = Metabolic stability in mouse liver S9 fractions assessed as half life; assay type: ADME, subcellular; details: liver S9 fraction
# [20] = MRTlast in Wistar rat plasma at 1 mg/kg, iv measured upto 48 hrs; assay type: ADME, organism-based
# [21] = AUClast in Wistar rat brain at 1 mg/kg, iv measured upto 48 hrs; assay type: ADME, organism-based
# [22] = MRTlast in Wistar rat brain at 1 mg/kg, iv measured upto 48 hrs; assay type: ADME, organism-based
# [23] = Cmax in Wistar rat brain at 5 mg/kg, po measured upto 48 hrs; assay type: ADME, organism-based
# [24] = Drug excretion in Wistar rat urine at 1 mg/kg, iv measured upto 48 hrs; assay type: ADME, organism-based; details: read-out: Drug excretion
# [25] = Tmax in male Sprague-Dawley rat brain at 1 mg/kg, iv measured upto 8 hrs by LC-MS/MS analysis; assay type: ADME, organism-based
# [26] = Half life in male Sprague-Dawley rat brain at 1 mg/kg, iv measured upto 8 hrs by LC-MS/MS analysis; assay type: ADME, organism-based
# [27] = MRTinf in male Sprague-Dawley rat brain at 1 mg/kg, iv measured upto 8 hrs by LC-MS/MS analysis; assay type: ADME, organism-based
# [28] = Brain to plasma ratio in male Sprague-Dawley rat at 1 mg/kg, iv measured upto 8 hrs by LC-MS/MS analysis; assay type: ADME, organism-based; details: brain and plasma, read-out: BPR
# [29] = Cmax in male Sprague-Dawley rat CSF at 1 mg/kg, iv measured upto 8 hrs by LC-MS/MS analysis; assay type: ADME, organism-based, Cerebrospinal fluid
# [30] = Tmax in male Sprague-Dawley rat CSF at 1 mg/kg, iv measured upto 8 hrs by LC-MS/MS analysis; assay type: ADME, organism-based, Cerebrospinal fluid
# [31] = CSF to plasma ratio in male Sprague-Dawley rat at 1 mg/kg, iv measured upto 8 hrs by LC-MS/MS analysis; assay type: ADME, organism-based; details: CSF and plasma
# Brain = assay: Drug binding in male C57BL/6J mouse brain homogenate at 1 mg/kg, iv measured upto 8 hrs by LC-MS/MS analysis; assay type: ADME, organism-based; details: in vivo
# [32] = Renal clearance in beagle dog at 0.4 mg/kg, iv measured upto 24 hrs; assay type: ADME, organism-based, Canis lupus familiaris; details: in vivo
# [33] = AUCinf in beagle dog at 2 mg/kg, po measured upto 24 hrs; assay type: ADME, organism-based, Canis lupus familiaris; details: in vivo
# T1 sequence (P41595 whole entry): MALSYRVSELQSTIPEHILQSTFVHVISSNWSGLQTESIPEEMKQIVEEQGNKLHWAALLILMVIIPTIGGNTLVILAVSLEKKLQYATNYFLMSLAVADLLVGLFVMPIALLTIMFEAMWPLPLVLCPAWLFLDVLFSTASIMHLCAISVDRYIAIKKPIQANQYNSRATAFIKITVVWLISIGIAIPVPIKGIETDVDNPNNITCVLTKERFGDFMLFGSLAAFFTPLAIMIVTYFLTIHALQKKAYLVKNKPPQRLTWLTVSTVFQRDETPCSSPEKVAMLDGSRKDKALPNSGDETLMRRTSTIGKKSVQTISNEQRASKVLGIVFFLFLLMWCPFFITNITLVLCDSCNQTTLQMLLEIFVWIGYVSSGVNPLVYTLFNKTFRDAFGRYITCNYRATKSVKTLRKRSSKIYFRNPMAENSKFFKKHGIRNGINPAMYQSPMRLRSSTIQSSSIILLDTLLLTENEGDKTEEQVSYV
# Sequence of 5-hydroxytryptamine receptor 2A (P28223 whole entry): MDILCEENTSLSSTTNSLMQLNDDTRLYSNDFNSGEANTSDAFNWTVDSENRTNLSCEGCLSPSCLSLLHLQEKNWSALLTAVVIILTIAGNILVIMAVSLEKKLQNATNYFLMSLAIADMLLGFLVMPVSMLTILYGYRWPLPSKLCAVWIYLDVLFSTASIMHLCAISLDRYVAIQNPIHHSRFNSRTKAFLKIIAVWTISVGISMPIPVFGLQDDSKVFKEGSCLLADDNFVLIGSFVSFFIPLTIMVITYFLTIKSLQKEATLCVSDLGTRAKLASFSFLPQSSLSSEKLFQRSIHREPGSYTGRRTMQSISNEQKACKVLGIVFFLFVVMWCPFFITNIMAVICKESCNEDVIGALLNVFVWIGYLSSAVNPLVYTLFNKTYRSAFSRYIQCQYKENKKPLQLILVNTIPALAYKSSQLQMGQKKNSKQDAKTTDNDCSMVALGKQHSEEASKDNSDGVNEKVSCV
# Sequence of 5-hydroxytryptamine receptor 6 (P50406 whole entry): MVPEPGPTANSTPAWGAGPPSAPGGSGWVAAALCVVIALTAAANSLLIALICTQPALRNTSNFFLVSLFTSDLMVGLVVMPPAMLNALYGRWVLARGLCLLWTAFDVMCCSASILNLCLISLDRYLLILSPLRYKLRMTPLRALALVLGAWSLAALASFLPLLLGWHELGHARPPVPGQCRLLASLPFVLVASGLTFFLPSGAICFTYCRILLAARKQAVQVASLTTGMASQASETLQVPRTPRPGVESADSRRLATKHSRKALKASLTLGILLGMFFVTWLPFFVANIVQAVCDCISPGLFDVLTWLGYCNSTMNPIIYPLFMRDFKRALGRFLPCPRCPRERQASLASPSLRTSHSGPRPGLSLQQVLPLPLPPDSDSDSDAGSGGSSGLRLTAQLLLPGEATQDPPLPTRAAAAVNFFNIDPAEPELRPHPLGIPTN
# Sequence of 5-hydroxytryptamine receptor 7 (P34969 whole entry): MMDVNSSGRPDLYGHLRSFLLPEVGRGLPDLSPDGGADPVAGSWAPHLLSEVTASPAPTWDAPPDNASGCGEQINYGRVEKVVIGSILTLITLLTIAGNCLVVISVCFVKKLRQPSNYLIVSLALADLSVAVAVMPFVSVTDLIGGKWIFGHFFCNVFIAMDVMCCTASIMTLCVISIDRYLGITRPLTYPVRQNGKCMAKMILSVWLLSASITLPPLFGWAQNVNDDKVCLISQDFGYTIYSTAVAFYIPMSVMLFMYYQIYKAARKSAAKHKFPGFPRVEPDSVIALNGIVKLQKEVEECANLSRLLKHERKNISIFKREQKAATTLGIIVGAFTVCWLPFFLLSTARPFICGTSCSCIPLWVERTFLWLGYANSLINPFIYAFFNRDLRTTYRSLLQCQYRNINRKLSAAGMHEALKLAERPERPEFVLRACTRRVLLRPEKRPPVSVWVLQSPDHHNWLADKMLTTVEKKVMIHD
compound,measurement,setting,value
COc1cc([Se]C(F)(F)F)c(OC)cc1CCN.Cl,Activity,Mus musculus [1],25
same,Emax,[2],87%
same,Ki,[3],10 nM
same,inhibition,[4],98%
same,inhibition,[5],90%
same,inhibition,[6],86%
same,EC50,[7],7.3 nM
same,Activity,[8],97%
same,Activity,Mus musculus [9],Active
same,Activity,Mus musculus [10],25
same,Activity,[11],947
same,Activity,[12],732
same,Activity,[13],736
same,Activity,Mus musculus [14],Active
same,Activity,Mus musculus [15],Active
same,Activity,Hippocampus,inactive
same,half-life at 1 µM,[16],> 2 h
same,half-life,[17],0.633 h
same,half-life,[18],1.27 h
same,half-life,[19],> 2 h
same,MRT last at 48 h,[20],0.62 h
same,AUC(0-t) at 48 h,[21],2910 ng·h/mL
same,MRT last at 48 h,[22],2.54 h
same,Cmax,[23],402 ng/mL
same,dose excreted at 48 h,[24],0.07%
same,Tmax,[25],0.25 h
same,half-life,[26],1.34 h
same,MRT inf,[27],1.98 h
same,Kp at 8 h,[28],15.6
same,Cmax,[29],48.7 ng/mL
same,Tmax,[30],4.98 min
same,Kp at 8 h,[31],0.2
same,Activity,Brain,> 98%
same,CL renal at 24 h,[32],0.6 mL/min/kg
same,AUC(0-inf),[33],2970 ng·h/mL
